The values that follow come from patent US20250188404A1, “CULTURE CAPSULE AND METHOD FOR RES[…] IN VIABLE BUT NON-CULTURABLE (VBNC) STATE” (Innovation Center of Yangtze River Delta, ZJU, priority 2023, published 2025).

Molecules are shown by their SMILES.

For this experiment, the system named is Salmonella ATCC14028 in a special dormant state. Kind of experiment: Resuscitation ("awakening") of VBNC Salmonella by nutrient added alone, pour-plate colony growth. The class given is cell-based. Conditions: nutrient not encapsulated, more than 3 g egg yolk lecithin or more than 0.22 g cholesterol per 20 mL bacterial solution, static incubation 1 d to 7 d. The protocol:
In the examples of the present disclosure, induced preparation of Salmonella ATCC14028 in a special dormant state: single colonies of Salmonella ATCC14028 are inoculated in a liquid medium and cultivated at 37° C. and 180 rpm to a late logarithmic stage; a resulting bacterial solution is centrifuged at 6,000 rpm for 10 min, and a resulting supernatant is discarded; a resulting precipitate is washed twice with phosphate buffered saline (PBS) and then re-dissolved with PBS for later use, and a resulting bacterial solution is serially diluted to a concentration of 1*10^8 CFU/mL; 18 mL of PBS is added to a 50 mL centrifuge tube, the centrifuge tube is heated in a 60±2° C. water bath, and after the temperature in the centrifuge tube reaches 60±2° C., 2 mL of a 1*10^8 CFU/mL bacterial solution is added to the centrifuge tube; a diluted bacterial solution is magnetically stirred and heated for 20 min, and then immediately taken out and placed in ice for later use; a cooled bacterial solution is centrifuged at 7,000 rpm for 10 min, a resulting supernatant is discarded, and PBS is added to 20 mL for re-dissolution; and the treated bacterial solution is subjected to staining with a Live/Dead BacLight kit, and then the number of viable bacteria in the treated bacterial solution is detected by flow cytometry. […]

Regarding `CC(C)CCC[C@@H](C)[C@H]1CC[C@H]2[C@@H]3CC=C4C[C@@H](O)CC[C@]4(C)[C@H]3CC[C@]12C` [cholesterol], the “"awakening" of bacteria in a special dormant state (growth of colonies)” value is given as “can “awaken” bacteria in a special dormant state”.
